Measured values taken from PubChem BioAssay (NCI).
“And” between values parts separate entries of the source, which are not always exact repeats. Identical values can stand only once.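 Interpolation was linear, between the two tested concentrations surrounding the appropriate level; five concentrations were tested over 48 hours in 96-well plates. The concentration for 50% growth inhibition is given as GI50. TGI marks complete inhibition of growth.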

test system: MDA-MB-468 breast; assay: DTP human tumour cell line panel, 48 h

**Q.** Which GI50 does the source give for C=CCOC1=CC(=O)c2ccccc2C1=O here?
**A.** 2.08 µM

**Q.** And the TGI?
**A.** 5.14 µM

**Q.** What does the source list for CCC(CC)COC(=O)[C@H](C)N[P@](=O)(OC[C@H]1O[C@@](C#N)(c2ccc3c(N)ncnn23)[C@H](O)[C@@H]1O)Oc1ccccc1?
**A.** GI50: 0.491 µM; TGI: 3.83 µM

**Q.** C=C1C(=O)O[C@H]2[C@H]1CC/C(COC(=O)NCc1ccc(Cn3c(=O)sn(CCI)c3=O)cc1)=C\CC[C@@]1(C)O[C@@H]21 was tested. Which GI50 did it give?
**A.** 1.25 µM

**Q.** And the TGI?
**A.** 2.81 µM

**Q.** Which results are given for CC(C)(C)CC(C)(C)c1ccc(OCCSC(=N)N)cc1?
**A.** GI50: 0.358 µM; TGI: 1.9 µM

**Q.** How did the GI50 turn out when COC(=O)[C@@H]1CCCN1C(=O)[C@@H]1CCCN1C(=O)[C@H](Cc1ccccc1)NC(=S)Nc1cc(C(F)(F)F)cc(C(F)(F)F)c1 was run?
**A.** 2.48 µM

**Q.** And the TGI?
**A.** 9.62 µM

**Q.** How did the GI50 turn out when Nc1nc2cc(-c3ccc4ncc(C(=O)N5CCOCC5)n4c3)ccc2o1 was run?
**A.** 3.82 µM

**Q.** What about the TGI of the same molecule?
**A.** 45.5 µM

**Q.** What does the source list for CCCCCCCCCCCCCCCCNC(=O)OC(C)C?
**A.** GI50: 4.01 µM; TGI: 10.1 µM

**Q.** Which GI50 does the source give for CN1CCN(Cc2ccc(NC(=O)c3cncc(C#Cc4cnc5ccc(OCC6(C)COC6)nn45)c3)cc2C(F)(F)F)CC1 here?
**A.** 0.12 µM

**Q.** And the TGI?
**A.** 0.36 µM

**Q.** For NS(=O)(=O)N(c1cc(C(F)(F)F)cc(C(F)(F)F)c1)C1CCN(Cc2ccc(C(F)(F)F)cc2)CC1, which GI50 is on record?
**A.** 5.65 µM

**Q.** And the TGI?
**A.** 12 µM

**Q.** With COc1ccc(/C=C2\CS(=O)(=O)C/C(=C\c3ccc(OC)cc3)C2=O)cc1 as the molecule, how does the GI50 read?
**A.** 1.59 µM

**Q.** And the TGI?
**A.** 5.18 µM

**Q.** What does the source list for N=C1N(c2ccccc2)C(=S)C(=Nc2ccccc2)N1c1ccccc1?
**A.** GI50: 7.14 µM; TGI: 20.8 µM

**Q.** With CCC(/C=C(C)/C=C/C(=O)c1c(O)c(-c2ccc(O)cc2)c[nH]c1=O)CO (stereo not given) as the molecule, how does the GI50 read?
**A.** 5.24 µM

**Q.** What about the TGI of the same molecule?
**A.** 24.4 µM

**Q.** With C=C1C(=O)O[C@H]2[C@H]1CC/C(COC(=O)NCc1[nH]nc3ccccc13)=C\CC[C@@]1(C)O[C@@H]21 as the molecule, how does the GI50 read?
**A.** 0.736 µM

**Q.** What about the TGI of the same molecule?
**A.** 2.72 µM

**Q.** With CCCCN(CCCC)CC(O)c1ccc(OCc2ccccc2)c2ccccc12 (stereo not given) as the molecule, how does the GI50 read?
**A.** 2.17 µM

**Q.** And the TGI?
**A.** 6 µM

**Q.** Which results are given for Oc1ccc(/C=C/c2ccc(O)cc2)cc1?
**A.** GI50: 10.7 µM; TGI: > 100 µM

**Q.** What does the source list for CC(C)(Oc1ccc(Cl)cc1)C(=O)NC1C2CC3CC1CC(NS(C)(=O)=O)(C3)C2 (stereo not given)?
**A.** GI50: > 100 µM; TGI: > 100 µM

**Q.** For COc1cc(-c2cncn2-c2ccc(-c3nc4ccc(F)cc4s3)cc2)ccc1F, which GI50 is on record?
**A.** 11.1 µM

**Q.** And the TGI?
**A.** > 100 µM

**Q.** What does the source list for C=C(C)[C@@H]1CC[C@]2(COC(C)=O)CC[C@]3(C)[C@H](CC[C@@H]4[C@@]5(C)CCCN(C(C)=O)C(C)(C)[C@@H]5CC[C@]43C)[C@@H]12?
**A.** GI50: 1.53 µM; TGI: 3 µM

**Q.** With Cc1nn(-c2ccccc2)c(-n2ccnc2)c1/C=N/Nc1nc(-c2ccc(Cl)c(Cl)c2)cs1 as the molecule, how does the GI50 read?
**A.** 1.47 µM

**Q.** What about the TGI of the same molecule?
**A.** 7.92 µM

**Q.** Cc1ccc(NS(=O)(=O)c2ccc(-c3cnc(C4CC4)o3)cc2)cc1C was tested. Which GI50 did it give?
**A.** 0.231 µM

**Q.** And the TGI?
**A.** 2.33 µM

**Q.** Which GI50 does the source give for COc1cccc(-n2ncc3c(N/N=C/c4ccc(F)cc4)ncnc32)c1 here?
**A.** > 25 µM

**Q.** What about the TGI of the same molecule?
**A.** > 25 µM

**Q.** With CCSc1ccc2c(c1)N(CCCN1CCN(C)CC1)c1ccccc1S2 as the molecule, how does the GI50 read?
**A.** 1.73 µM

**Q.** And the TGI?
**A.** 3.38 µM

**Q.** What does the source list for CO[C@@H](C(=O)N1Cc2[nH]nc(NC(=O)c3ccc(N4CCN(C)CC4)cc3)c2C1)c1ccccc1?
**A.** GI50: 0.585 µM and 0.13 µM; TGI: 5.28 µM and > 10 µM

**Q.** With COc1cc(-c2cc(/C=C3\C(=O)Nc4ccc(Cl)cc43)[nH]n2)cc(OC)c1OC as the molecule, how does the GI50 read?
**A.** 5.23 µM

**Q.** And the TGI?
**A.** 88.8 µM

**Q.** With O=C(C(Br)C(Br)c1ccccc1)C(Br)C(Br)c1ccccc1 (stereo not given) as the molecule, how does the GI50 read?
**A.** 1.04 µM

**Q.** And the TGI?
**A.** 3.09 µM

**Q.** What does the source list for NS(=O)(=O)c1ccc(Nc2ncc(-c3ccccc3)o2)cc1?
**A.** GI50: > 25 µM; TGI: > 25 µM

**Q.** CN1CCN(Cc2ccc(NC(=O)c3cnc(F)c(C#Cc4cnc(N)c5ncccc45)c3)cc2C(F)(F)F)CC1 was tested. Which GI50 did it give?
**A.** 0.386 µM

**Q.** What about the TGI of the same molecule?
**A.** 7.68 µM

**Q.** Which GI50 does the source give for CN(CCO)C1CCN(c2ccc(Nc3ncc4c5ccnc(F)c5n(C5CCCC5)c4n3)nc2)CC1 here?
**A.** 15.4 µM

**Q.** And the TGI?
**A.** 33.2 µM

**Q.** With COC(=O)c1c2c(c(C)[n+]([O-])c1C)C(=O)C(NCc1cccc(Cl)c1)=CC2=O as the molecule, how does the GI50 read?
**A.** 0.896 µM

**Q.** What about the TGI of the same molecule?
**A.** 2.5 µM

**Q.** CCN(CCCNC(=O)Cc1cc(=O)oc2cc(N(C)C)ccc12)CCNc1ccnc2cc(Cl)ccc12 was tested. Which GI50 did it give?
**A.** 1.96 µM

**Q.** What about the TGI of the same molecule?
**A.** 6 µM

**Q.** Which GI50 does the source give for CNC1CCc2c(sc(NC(=O)c3ccc(C(C)(C)C)cc3)c2C(N)=O)C1 (stereo not given) here?
**A.** 1.84 µM

**Q.** What about the TGI of the same molecule?
**A.** 3.58 µM

**Q.** What does the source list for O=[N+]([O-])c1cc([N+](=O)[O-])c(N2CCCC2)cc1NN=C(c1ccc(O)cc1)c1ccc(O)cc1?
**A.** GI50: 2.18 µM; TGI: 10.1 µM

**Q.** For CN(C)c1ccc(O)c2c1CC1CC3C(N(C)C)C(=O)C(C(N)=O)=C(O)C3(O)C(=O)C1=C2O (stereo not given), which GI50 is on record?
**A.** 11 µM

**Q.** What about the TGI of the same molecule?
**A.** 57.7 µM

**Q.** CCNC(=O)N1CCc2cc(OC)c(OCCc3ccc(OC)nc3)cc2C1c1ccc(C)cc1C (stereo not given) was tested. Which GI50 did it give?
**A.** 1.59 µM

**Q.** What about the TGI of the same molecule?
**A.** 7.58 µM

**Q.** Which results are given for COc1ccc(-c2cnoc2-c2ccc(OC)cc2O)cc1?
**A.** GI50: 0.844 µM; TGI: 5.46 µM

**Q.** Which results are given for CCOC(=O)c1ccc(NC(=O)Nc2nccs2)cc1?
**A.** GI50: 0.0467 µM; TGI: > 100 µM

**Q.** Which results are given for COc1ccc(-c2cc3c(OC)c(OC)c(OC)cc3oc2=O)cc1?
**A.** GI50: 2.21 µM; TGI: 8.46 µM

**Q.** How did the GI50 turn out when CCN(CC)CCCN1C(=O)c2c(c(C)c3c(oc4ccc(O)cc43)c2C)C1=O was run?
**A.** 1.65 µM

**Q.** What about the TGI of the same molecule?
**A.** 3.72 µM

**Q.** With Cc1nnc([S-])o1.[Au+].c1ccc([PH+](c2ccccc2)c2ccccc2)cc1 as the molecule, how does the GI50 read?
**A.** 1.38 µM

**Q.** What about the TGI of the same molecule?
**A.** 2.8 µM

**Q.** What does the source list for O=C1c2ccc3c4c(ccc(c24)C(=O)N1CCCNCc1ccccc1F)C(=O)N(CCCNCc1ccccc1F)C3=O?
**A.** GI50: 0.143 µM; TGI: 0.29 µM

**Q.** Which results are given for O=C(Nc1cccc(-n2cc(-c3ccncc3)c(-c3ccc(Cl)c(O)c3)n2)c1)Nc1cccc(C(F)(F)F)c1?
**A.** GI50: 0.98 µM; TGI: 7.83 µM

**Q.** With CCCCC/C=C/C(=O)CCc1ccc(O)c(OC)c1 as the molecule, how does the GI50 read?
**A.** 3.18 µM

**Q.** What about the TGI of the same molecule?
**A.** 13 µM

**Q.** How did the GI50 turn out when Cc1ccc2c(NCCCN(C)C)c3c(C)nn(C)c3nc2c1 was run?
**A.** 2.71 µM

**Q.** What about the TGI of the same molecule?
**A.** 10.2 µM

**Q.** Which results are given for Nc1[nH]c(=O)nc2c1cnn2Cc1ccccc1?
**A.** GI50: > 100 µM; TGI: > 100 µM

**Q.** CSc1nn2c(-c3ccc4ccccc4c3)ccnc2c1C#N was tested. Which GI50 did it give?
**A.** 2.87 µM

**Q.** And the TGI?
**A.** 18.3 µM

**Q.** Cn1cc(C2=C(c3cn(C)c4cc(C(=O)O)ccc34)C(=O)NC2=O)c2ccccc21 was tested. Which GI50 did it give?
**A.** > 25 µM

**Q.** And the TGI?
**A.** > 25 µM

**Q.** O=NNc1ccc(S(=O)c2ccccc2)cn1 (stereo not given) was tested. Which GI50 did it give?
**A.** 76.2 µM

**Q.** What about the TGI of the same molecule?
**A.** > 100 µM

**Q.** With COC(=O)c1cc2cc(-c3ccc(OC)cc3)cnc2[nH]1 as the molecule, how does the GI50 read?
**A.** 0.744 µM

**Q.** How did the GI50 turn out when C/C=C(/C(=C/C)c1ccc(O)cc1)c1ccc(O)cc1 was run?
**A.** 2 µM

**Q.** And the TGI?
**A.** 6.85 µM

**Q.** Which GI50 does the source give for O=c1ccc(N=Nc2ccccc2)ccc1Cl here?
**A.** 2.46 µM

**Q.** What about the TGI of the same molecule?
**A.** 10.8 µM

**Q.** COc1ccc(CN2CCc3c(Sc4ccccc4)nc(N)nc3C2=O)c(OC)c1 was tested. Which GI50 did it give?
**A.** 3.51 µM

**Q.** And the TGI?
**A.** 14 µM

**Q.** CCCCSSC(=S)N(CC)CC was tested. Which GI50 did it give?
**A.** 65.1 µM

**Q.** What about the TGI of the same molecule?
**A.** > 100 µM

**Q.** How did the GI50 turn out when CN1CCN(Cc2ccc(NC(=O)c3nc4ccc5[nH]ncc5c4c4c3CCCC4)cc2C(F)(F)F)CC1 was run?
**A.** 0.797 µM

**Q.** And the TGI?
**A.** 1.6 µM
